Literature values in patent US6174513A, “Stabilization of peptides and proteins for radiopharmaceutical use” (priority 1998, dated 2001).

Test system: somatostatin receptors in a variety of human tumors

- Binding affinity to somatostatin receptors: very high binding affinity
SMILES: C[C@@H](O)[C@@H]1NC(=O)[C@H](CCCCN)NC(=O)[C@@H](Cc2c[nH]c3ccccc23)NC(=O)[C@H](Cc2ccccc2)NC(=O)[C@@H](NC(=O)[C@H](N)Cc2ccccc2)CSSC[C@@H](C(=O)N[C@H](CO)[C@@H](C)O)NC1=O [Octreotide]
